# Assay results reported in PubChem BioAssay (NCI).
#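 GI50: concentration for 50% inhibition of growth. At the TGI there is no net growth.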
# Tests used:
# Assay in all cases: DTP human tumour cell line panel, 384-well format
# NCI-H322M lung = system: NCI-H322M lung
# OVCAR-8 ovarian = system: OVCAR-8 ovarian
# MDA-MB-231 breast = system: MDA-MB-231 breast
# OVCAR-4 ovarian = system: OVCAR-4 ovarian
# SF-295 CNS = system: SF-295 CNS
# HOP-62 NSCLC = system: HOP-62 NSCLC
# SK-MEL-28 melanoma = system: SK-MEL-28 melanoma
# UO-31 renal = system: UO-31 renal
# NCI/ADR-RES ovarian = system: NCI/ADR-RES ovarian
# EKVX NSCLC = system: EKVX NSCLC
# MDA-MB-435 melanoma = system: MDA-MB-435 melanoma
# NCI-H460 NSCLC = system: NCI-H460 NSCLC
# MDA-MB-468 breast = system: MDA-MB-468 breast
# HT29 colon = system: HT29 colon
# HOP-92 NSCLC = system: HOP-92 NSCLC
# COLO 205 colon = system: COLO 205 colon
# SR leukemia = system: SR leukemia
# K-562 leukemia = system: K-562 leukemia
# UACC-62 melanoma = system: UACC-62 melanoma
# 786-0 renal = system: 786-0 renal
# OVCAR-3 ovarian = system: OVCAR-3 ovarian
# ACHN renal = system: ACHN renal
# MALME-3M melanoma = system: MALME-3M melanoma
# HCT-116 colon = system: HCT-116 colon
# MOLT-4 leukemia = system: MOLT-4 leukemia
# SK-OV-3 ovarian = system: SK-OV-3 ovarian
# SNB-75 CNS = system: SNB-75 CNS
# CCRF-CEM leukemia = system: CCRF-CEM leukemia
# PC-3 prostate = system: PC-3 prostate
smiles,measurement,setting,value
O=C(NOCCO)c1ccc2cncn2c1Nc1ccc(I)cc1F,GI50,NCI-H322M lung,0.0325 µM
same,TGI,NCI-H322M lung,15.5 µM
same,GI50,OVCAR-8 ovarian,2.6 µM
same,TGI,OVCAR-8 ovarian,18.2 µM
same,GI50,MDA-MB-231 breast,< 0.01 µM
same,TGI,MDA-MB-231 breast,1.02 µM
same,GI50,OVCAR-4 ovarian,4.22 µM
same,TGI,OVCAR-4 ovarian,38.3 µM
same,GI50,SF-295 CNS,11.1 µM
same,TGI,SF-295 CNS,26.2 µM
same,GI50,HOP-62 NSCLC,0.0128 µM
same,TGI,HOP-62 NSCLC,15.3 µM
same,GI50,SK-MEL-28 melanoma,< 0.01 µM
same,TGI,SK-MEL-28 melanoma,< 0.01 µM
same,GI50,UO-31 renal,0.0408 µM
same,TGI,UO-31 renal,20.2 µM
same,GI50,NCI/ADR-RES ovarian,23.1 µM
same,TGI,NCI/ADR-RES ovarian,> 100 µM
same,GI50,EKVX NSCLC,0.153 µM
same,TGI,EKVX NSCLC,17.8 µM
same,GI50,MDA-MB-435 melanoma,< 0.01 µM
same,TGI,MDA-MB-435 melanoma,21.1 µM
same,GI50,NCI-H460 NSCLC,< 0.01 µM
same,TGI,NCI-H460 NSCLC,22.1 µM
same,GI50,MDA-MB-468 breast,6.92 µM
same,TGI,MDA-MB-468 breast,21.5 µM
same,GI50,HT29 colon,< 0.01 µM
same,TGI,HT29 colon,14.3 µM
same,GI50,HOP-92 NSCLC,0.012 µM
same,TGI,HOP-92 NSCLC,0.198 µM
same,GI50,COLO 205 colon,< 0.01 µM
same,TGI,COLO 205 colon,0.0258 µM
same,GI50,SR leukemia,0.087 µM
same,TGI,SR leukemia,2.39 µM
same,GI50,K-562 leukemia,0.0267 µM
same,TGI,K-562 leukemia,14.7 µM
same,GI50,UACC-62 melanoma,< 0.01 µM
same,TGI,UACC-62 melanoma,0.0159 µM
same,GI50,786-0 renal,1.23 µM
same,TGI,786-0 renal,20.7 µM
same,GI50,OVCAR-3 ovarian,11.2 µM
same,TGI,OVCAR-3 ovarian,29.1 µM
same,GI50,ACHN renal,7.88 µM
same,TGI,ACHN renal,> 100 µM
same,GI50,MALME-3M melanoma,< 0.01 µM
same,TGI,MALME-3M melanoma,< 0.01 µM
same,GI50,HCT-116 colon,< 0.01 µM
same,TGI,HCT-116 colon,0.191 µM
same,GI50,MOLT-4 leukemia,14.8 µM
same,TGI,MOLT-4 leukemia,31.7 µM
same,GI50,SK-OV-3 ovarian,2.76 µM
same,TGI,SK-OV-3 ovarian,18.7 µM
same,GI50,SNB-75 CNS,0.34 µM
same,TGI,SNB-75 CNS,15.7 µM
same,GI50,CCRF-CEM leukemia,13.3 µM
same,TGI,CCRF-CEM leukemia,27 µM
same,GI50,PC-3 prostate,18.1 µM
same,TGI,PC-3 prostate,35.4 µM
